This is an account of results in patent US20230257367A1, “NOVEL THYROID HORMONE BETA RECEPTOR AGONIST” (Chengdu Kanghong Pharmaceutical Co., Ltd., priority 2020, published 2023).

A word on the pIC50: it is −log10 of the IC50, conventionally taken in molar units. A higher pIC50 goes with a low IC50. What is called EC50 is the concentration at which the effect is half-maximal. A higher EC50 goes with a less potent agent. Broadly, the bioavailability is dose-corrected exposure relative to a reference, in per cent.

For series [1] the following is noted: reported clinical data (VK2809 phase I; Eprotirome phase III); cited from earlier work.
The conditions of series [2]: preclinical toxicological studies; cited from earlier work.
The next series relates to primary hepatocyte. Put plainly: Hepatotoxicity detection in vitro (CellTiter-Glo). Type of series: cell-based, human. The settings on record: primary hepatocytes; for pIC50: Homo sapiens, Hepatocyte, cell viability after 48 hours; for Cell activity at the highest concentration (%): 48 hours, highest working solution concentration 600 μM. Here is the method: Information of Primary Hepatocyte
Step 1: a test substance was prepared into a 200 mM DMSO stock solution, and then subjected to 3-times gradient continuous dilution by 7 concentrations, then 1.5 μL of each of the solutions of the 8 concentrations was added into 498.5 μL of incubation culture medium (with a composition referring to Table 5, directly mixed evenly) to prepare a working solution, and the incubation culture medium was preheated at 37° C. before preparation. DMSO was used as a solvent control. DMSO contents in the working solution and the solvent control were both 0.3 vol %. Concentrations of compounds were as follows:
Step 2: Plate Inoculation and Cell Culture
Second Step: Plate Inoculation and Culture of Cells
1) A tube of hepatocytes of the donor used in the experiment preserved at ultra-low temperature was taken, and the hepatocytes were ensured to be still frozen at low temperature before resuscitation. The hepatocytes were quickly placed in a water bath at 37° C. and gently shaken until all ice crystals were dispersed, and were transferred to a biosafety cabinet after spraying 70 vol % ethanol.
2) Contents of hepatocyte tubules were poured into a 50 mL centrifuge tube containing 50 mL of resuscitation culture medium (with a composition referring to Table 3, directly mixed evenly), and centrifuged at 80 g for 8 minutes. After centrifugation, the resuscitation culture medium was sucked out and an inoculation culture medium was added (with a composition referring to Table 4, directly mixed evenly). The cells were counted by AO/PI staining to obtain a cell suspension with a cell density of 0.2×10^6 cells per milliliter.
3) The cell suspension above was inoculated into a 96-well plate coated with collagen I, with 100 μL per well. The culture plate was placed in a 5% CO2 incubator with 95% relative humidity to culture for 4 hours to 6 hours.
4) After incubation for 4 hours to 6 hours, the state of the cells was observed under microscope. The culture plate was shaken gently, the inoculation culture medium was sucked out, and 100 μL of incubation culture medium was added into each well (with a composition referring to Table 5). A toxicity test could be carried out after culturing in the incubator for 18 hours to 20 hours.
5) Before administration, the morphology of the cells was observed under microscope. The culture medium in the culture plate was sucked out, and 100 μL of solvent control (DMSO), or test substance working solution was added into each well. Three parallel samples were tested under each condition.
6) The newly prepared working solution or solvent control was used for solution exchange every 24 hours after dosing.
After the working solution acted for 48 hours, the morphology of the cells was observed under microscope for later use.
Step 3: Cytotoxicity Detection
1) A CellTiter-Glo (Promega, article number G9243) reagent stored at −20° C. was melted in a water bath at 37° C.
2) After the cell culture plate obtained above was incubated for 48 hours, 50 μL of CellTiter-Glo solution was directly added into each experimental well.
3) The cell culture plate was vortexed at 400 rpm for 10 minutes, and incubated at room temperature to stabilize a luminescence signal.
After 10 minutes 100 μL of reaction solution was sucked from each well and transferred to a new white nontransparent-bottom flat plate (Corning 96-well plate Cat No. 3917). The
chemiluminescence value of each well was read by a microplate reader (a luminescence value of the white nontransparent-bottom flat plate was recorded as “a luminescence valueblank”; and a luminescence value of the solvent control was recorded as “a luminescence valuesolvent”).
Cell viability(%)=[(luminescence valueto-be-tested compound−luminescence valueblank)/(luminescence valuesolvent−luminescence valueblank)]×100% […]
In general terms: ATP-based viability assays read luminescence as a measure of living cells.

Another series concerns the target T1, TRα-LBD/RXRα (Homo sapiens, UniProt P10827).
T1 construct: TRα-LBD (Invitrogen, PV4762), or TRβ-LBD (Invitrogen, PV4764) with a GST tag were used; purchased Invitrogen (TRα-LBD); Pharmaron (RXRα) PV4762
Put plainly: In vitro binding experiment (TR-FRET SRC2-2 co-activator peptide recruitment), TRα. The settings on record: 4 h incubation at room temperature. Format: biochemical. (In general: TR-FRET usually uses a lanthanide donor and a delayed reading to cut background.)

A further series deals with T2, TRα (Homo sapiens, UniProt P10827).
T2 construct: host or cells: HEK293T
T2 sequence (P10827 1-410 isoform P10827-2): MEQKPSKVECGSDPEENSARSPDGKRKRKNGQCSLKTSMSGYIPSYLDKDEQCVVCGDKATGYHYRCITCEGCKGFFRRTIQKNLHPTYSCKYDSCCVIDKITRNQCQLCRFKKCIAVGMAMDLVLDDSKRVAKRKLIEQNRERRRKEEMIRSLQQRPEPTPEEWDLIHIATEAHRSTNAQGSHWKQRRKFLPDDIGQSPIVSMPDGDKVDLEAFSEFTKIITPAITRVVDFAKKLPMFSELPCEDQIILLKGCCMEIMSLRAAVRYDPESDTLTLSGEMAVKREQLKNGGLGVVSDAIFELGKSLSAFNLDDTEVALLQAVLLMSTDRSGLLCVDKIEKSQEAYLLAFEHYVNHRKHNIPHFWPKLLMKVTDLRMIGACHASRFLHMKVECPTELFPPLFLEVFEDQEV
T2 sequence (P19793 227-458 partner limits assumed): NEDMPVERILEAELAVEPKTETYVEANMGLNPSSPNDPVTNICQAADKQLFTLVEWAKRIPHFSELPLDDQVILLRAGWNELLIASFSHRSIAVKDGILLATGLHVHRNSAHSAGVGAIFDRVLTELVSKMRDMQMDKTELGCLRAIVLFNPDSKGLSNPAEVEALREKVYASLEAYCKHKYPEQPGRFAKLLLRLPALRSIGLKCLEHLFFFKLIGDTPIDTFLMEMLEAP
Put plainly: In vitro TRα cell transfection experiment (GAL4 luciferase reporter, HEK293T). Type of series: cell-based. On the technique in general: A reporter such as luciferase makes a cellular process visible.

In a further series the target is T3, TRβ-LBD/RXRα (Homo sapiens, UniProt P10828).
T3 construct: TRβ-LBD (Invitrogen, PV4764) with a GST tag were used; purchased Invitrogen (TRβ-LBD); Pharmaron (RXRα) PV4764
T3 sequence (P19793 whole entry partner, other chains not shown, the tested form may be a part): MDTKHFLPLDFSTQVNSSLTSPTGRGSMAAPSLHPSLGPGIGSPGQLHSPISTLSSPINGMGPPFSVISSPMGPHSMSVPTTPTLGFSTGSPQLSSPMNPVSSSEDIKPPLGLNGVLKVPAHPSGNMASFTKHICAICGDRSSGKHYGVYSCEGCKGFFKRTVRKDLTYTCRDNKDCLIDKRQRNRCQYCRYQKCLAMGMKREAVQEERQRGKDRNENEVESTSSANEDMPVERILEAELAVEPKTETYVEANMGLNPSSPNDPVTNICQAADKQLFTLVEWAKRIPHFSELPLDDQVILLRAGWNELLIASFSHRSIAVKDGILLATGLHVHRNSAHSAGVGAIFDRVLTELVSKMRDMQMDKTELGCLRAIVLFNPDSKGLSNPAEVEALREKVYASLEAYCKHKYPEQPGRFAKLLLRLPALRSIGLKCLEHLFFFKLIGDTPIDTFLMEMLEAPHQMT
Description: In vitro binding experiment (TR-FRET SRC2-2 co-activator peptide recruitment), TRβ. Format: biochemical. Particulars: 4 h incubation at room temperature.

The target of the next series is T4, TRβ (Homo sapiens, UniProt P10828).
T4 construct: host or cells: HEK293T
T4 sequence (P10828 217-461 limits assumed): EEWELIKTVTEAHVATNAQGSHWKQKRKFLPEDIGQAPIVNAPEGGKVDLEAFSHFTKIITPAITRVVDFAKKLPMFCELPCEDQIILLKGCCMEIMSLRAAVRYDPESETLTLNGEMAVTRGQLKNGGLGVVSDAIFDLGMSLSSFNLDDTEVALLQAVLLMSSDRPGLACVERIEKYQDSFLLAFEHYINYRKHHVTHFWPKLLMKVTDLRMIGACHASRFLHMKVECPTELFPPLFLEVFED
T4 sequence (P19793 227-458 partner limits assumed): T2 sequence (P19793 227-458 partner limits assumed)
Description: In vitro TRβ cell transfection experiment (GAL4 luciferase reporter, HEK293T). Format: cell-based.

The nature of series [3]: PK experiment of cynomolgus monkeys. Format: in vivo. Particulars: cynomolgus monkey, plasma; for AUC(0-t): read-out: Area under the curve AUC(0-t) in the case of administration; for Cmax: read-out: Peak concentration Cmax. An excerpt: The purpose of this experiment was to evaluate the pharmacokinetic behavior of the compound to be tested after single intravenous and intragastric administration, and to study the bioavailability after intragastric administration, providing animal experimental data for clinical studies.
Preparation of solutions for intravenous injection and intragastric administration: an appropriate amount of compound to be tested was accurately weighed, and mixed with a suitable solvent (5 vol % DMSO+10 vol % polyethylene glycol−15-hydroxystearate+85 vol % normal saline). After vortex, or ultrasound processing, a clear and transparent solution (the solution for intravenous injection administration), or a uniform suspension was obtained. The solution administrated by intravenous injection needed to be filtered through a 0.22 μm filter membrane
Experimental design: before the first dose the cynomolgus monkeys were divided into 2 groups by body weight with 3 male cynomolgus monkeys in each group, where animals in group 1 were given the compound to be tested (1 mg/kg) by single intravenous injection (IV); and animals in the 2rd group were administrated with the compound to be tested (5 mg/kg) by single intragastric administration (PO). The animals were weighed before administration, and dosages were calculated based on the weights of the animals.
Sample collection: a whole blood sample (about 0.2 mL) was collected at a specified time by venipuncture of an upper limb (or other suitable blood collection sites), and the actual blood collection time was recorded in test records. The acceptable error for one acquisition time point within 1 hour after administration is ±1 minute, and the acceptable error for other time points is ±5% of the theoretical time. All blood samples were immediately transferred to a labeled commercial centrifuge tube containing K2-EDTA. After blood sample collection, the blood sample was centrifuged at 4° C. and 3,200 g for 10 minutes, the supernatant plasma was sucked, quickly put in dry ice, and kept in a refrigerator at −70±10° C. for LC-MS/MS analysis. The collection time of both groups was 0.083 hour, 0.25 hour, 0.5 hour, 1 hour, 2 hours, 4 hours, 8 hours and 24 hours after administration.
Data processing: Area under the curve (AUC(0-t) and AUC(0-∞)), elimination half-life (T½), peak concentration (Cmax), time to reach maximum plasma concentration (Tmax), etc., were calculated by the non-compartment analysis module in Phoenix WinNonlin 7.0.

pIC50: −log10 of the molar value. Read-outs that look alike come from different tables or passages of the source.

T1 sequence (P19793 whole entry partner, other chains not shown, the tested form may be a part): as the sequence (P19793 whole entry partner, other chains not shown, the tested form may be a part) above

For the compound `CC(C)c1cc(Oc2c(Br)cc(NC(=O)CC(=O)O)cc2Br)ccc1O` [Eprotirome], the liver enzyme result in series [1] is “increase in liver enzyme”. For the same compound, the cartilage damage entry in series [2] is given as “cartilage injury was also found”.
The compound `CC(C)c1nc(Oc2c(Cl)cc(-n3nc(C#N)c(=O)[nH]c3=O)cc2Cl)ncc1O` [KH03] had a pIC50 in the series with primary hepatocyte of 3.58. Moreover, in the series with primary hepatocyte, the “Cell activity at the highest concentration (%)” value was found to be 0.0421%. For the same compound, the EC50 was 0.144 µM on TRα-LBD/RXRα, 0.826 µM at TRα, 0.031 µM on TRβ-LBD/RXRα and 0.089 µM at TRβ.
`O=c1cnn(-c2cc(Cl)c(Oc3ncc(O)c(Cc4ccccc4)n3)c(Cl)c2)c(=O)[nH]1` [KH10]: in the series with primary hepatocyte, the negative logarithm of the IC50 (pIC50) was 3.80. In addition, the “Cell activity at the highest concentration (%)” value in the series on primary hepatocyte was determined as 0.0142%. Besides, the EC50 came to 1.47 µM on TRα-LBD/RXRα, 0.269 µM on TRα, 0.054 µM on TRβ-LBD/RXRα and 0.032 µM at TRβ.
In the case of `N#Cc1nn(-c2cc(Cl)c(Oc3ncc(O)c(C4CC4)n3)c(Cl)c2)c(=O)[nH]c1=O` [KHE017], the EC50 at TRα-LBD/RXRα is 0.737 µM; on TRα, 3.31 µM; at TRβ-LBD/RXRα, 0.077 µM; at TRβ, 0.88 µM.
In the case of `O=c1cnn(-c2cc(Cl)c(Oc3ncc(O)c(C4CC4)n3)c(Cl)c2)c(=O)[nH]1` [KHE018], the concentration for a half-maximal effect (EC50) on TRα-LBD/RXRα is 0.346 µM; on TRα, 0.407 µM; on TRβ-LBD/RXRα it was 0.04 µM; at TRβ, 0.102 µM.
The corresponding values for `CC(C)c1nc(Oc2c(Cl)cc(NC(=O)C(=O)O)cc2Cl)ncc1O` [KHE021] are 0.008 µM, 1.17 µM, 0.001 µM and 0.5 µM.
Regarding `CC(C)c1cc(Oc2c(Cl)cc(-n3nc(C#N)c(=O)[nH]c3=O)cc2Cl)n[nH]c1=O` [MGL3196, reference compound], in series [3] (IV, 1 mg/kg, single dose, male cynomolgus monkeys, read-out: Half-life period (T1/2) (converted)), the half-life was 1.45 h. In addition, in series [3] (male, PO 5 mg/kg vs IV 1 mg/kg, read-out: Bioavailability (F)), the bioavailability was determined as 8.47%. Further, in series [3] (male, IV, 1 mg/kg, single dose), the AUC(0-t) worked out at 3900 ng·h/mL and the Cmax was 11200 ng/mL. For the same compound, in series [3] (male, PO, 5 mg/kg, single dose), the AUC(0-t) was found to be 1650 ng·h/mL and the Cmax came out at 430 ng/mL.
Consider `Cc1cc(OCP2(=O)OCC[C@@H](c3cccc(Cl)c3)O2)cc(C)c1Cc1ccc(O)c(C(C)C)c1` (stereo partly shown) [VK2809], for which the liver enzyme result in series [1] is on record as “Liver enzyme increase”. Besides, the cartilage damage entry in series [2] is “cartilage damage was found”.
